In this data set the test system is polychromatic erythrocytes from rat bone marrow. The experiment in a line: Bone marrow micronucleus assay in rats. As to conditions: 20 mg/kg/day oral, once only, male rats, positive control. Here is the method: The objective of this study was to assess the potential of 5-[2-(1-methylethyl)-2,3-dihydro-1H-isoindol-5-yl]-3-(1-{[2-(methyloxy)ethyl]sulfonyl}-4-piperidinyl)-1H-indole-7-carboxamide in induce structural chromosomal damage and/or aneuploidy in vivo, in polychromatic erythrocytes from rat bone marrow, when administered to rats for two consecutive days.
Crl: CD(SD) rats were used in this study.
Doses of 500, 1000, 2000 mg/kg/day of 5-[2-(1-methylethyl)-2,3-dihydro-1H-isoindol-5-yl]-3-(1-{[2-(methyloxy)ethyl]sulfonyl}-4-piperidinyl)-1H-indole-7-carboxamide, or vehicle (0.5% (w/v) aqueous hydroxypropylmethylcellulose containing 0.1% (w/v) Tween 80), were given orally (by gavage) to groups of 3 male and 3 female rats. […]
Doses of 1000 or 2000 mg/kg/day—5-[2-(1-methylethyl)-2,3-dihydro-1H-isoindol-5-yl]-3-(1-{[2-(methyloxy)ethyl]sulfonyl}-4-piperidinyl)-1H-indole-7-carboxamide or vehicle (0.5% (w/v) aqueous hydroxypropylmethylcellulose containing 0.1% (w/v) Tween 80) were given orally, by gavage, on two consecutive days to groups of 6 male rats. […] Smears were stained with acridine orange prior to analysis with fluorescense microscopy to determine the proportion of polychromatic erythrocytes in the total erythrocyte count (% PCE) and the number of micronucleated polychromatic erythrocytes (MPCE) per 2000 PCE analysed.

Turning to `O=P1(N(CCCl)CCCl)NCCCO1` (centres unmarked) [Cyclophosphamide, cyclophosphamide], the “Group Mean % PCE” value amounted to 46% and the “Group Mean MPCE” value worked out at 51.87 per 2000 PCE analysed.

These data come from US8354539B2, “Indole derivatives as IKK2 inhibitors” (Glaxo Group Limited, priority 2009, dated 2013).
